In publication PMC4937660, “In vitro evaluation of the effects of 4-aminopyridine on cytochrome P450 enzymes” (Journal of Drug Assessment, 2013):

System: T1, CYP3A4/5
T1 construct: native enzymes in pooled human liver microsomes (16 samples, XenoTech); read out by testosterone 6beta-hydroxylation and midazolam 1'-hydroxylation
Assay: testosterone 6beta-hydroxylation in human liver microsomes, HPLC-MS/MS
Type: biochemical
Conditions: direct inhibition, no pre-incubation; testosterone 100 μM (about Km); NADPH-generating system, pH 7.4, 37 °C; read-out: Direct inhibition; 0-min Pre-incubation / IC50
Excerpt: testosterone 6beta-hydroxylation in human liver microsomes, HPLC-MS/MS on CYP3A4/5

With `Nc1ccncc1` [4-AP] the IC50 was > 30 µM.
